Counter-ions that a name gives are not always drawn. Like-named read-outs stand apart in the source and are kept apart here. Where only a bound is given, the exact number is not on record here.

This note sets out measurements from patent US20250115591A1, “NOVEL SULFONAMIDE CARBOXAMIDE COMPOUNDS” (INFLAZOME LIMITED, priority 2017, published 2025).

The target in data set [1] is T1, NLRP3 (Homo sapiens (Human), UniProt Q96P20). Kind of data set: THP-1 cells pyroptosis assay (LPS + nigericin, resazurin read-out). Type of data set: cell-based. The settings on record: 1 μg/ml LPS, 5 μM nigericin. In short, it runs like this:
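LPS-primed (1 μg/ml) human THP-1 cells in serum-free RPMI were exposed to compound (8-point half-log series, top dose as printed "10M") for 3 h at 37 °C, then to nigericin 5 μM for 1 h. Remaining viability was read by resazurin (100 μM, 1-2 h) fluorescence, and IC50 came from 4-parameter variable-slope regression.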

The target in data set [2] is T1, NLRP3. In words: Human whole blood IL1β release assay (LPS + nigericin). Type of data set: cell-based. How it is done: For systemic delivery, the ability to inhibit NLRP3 when the compounds are present within the bloodstream is of great importance. For this reason, the NLRP3 inhibitory activity of a number of compounds in human whole blood was investigated in accordance with the following protocol.
Human whole blood in Li-heparin tubes was obtained from healthy donors from a volunteer donor panel. • 1. Plate out 80 μl of whole blood containing 1 μg/ml of LPS in 96-well, clear bottom cell culture plate (Corning #3585) • 2. Add 10 μl compound (8 points half-log dilution with 10 μM top dose) or vehicle (DMSO 0.1% FAC) to the appropriate wells • 3. Incubate for 3 hrs at 37° C., 5% CO2 • 4. Add 10 μl nigericin (Sigma #N7143) ([…]) to all wells • 5. Incubate for 1 hr at 37° C., 5% CO2 • 6. At the end of the incubation period, spin plates at 30×g for 5 mins to pellet cells and remove 20 μl of supernatant and add to 96-well v-bottom plates for IL-1β analysis (note: these plates containing the supernatants can be stored at −80° C. to be analysed at a later date) • 7. IL-1β was measured according to the manufacturer protocol (Perkin Elmer-AlphaLisa IL-Kit A[220F-5000) • 8. IC50 data is fitted to a non-linear regression equation (log inhibitor vs response-variable slope 4-parameters)

Data set [3] can be described thus: PK, intravenous administration. The class given is in vivo, male Sprague Dawley rats. The conditions noted are these: male, Sprague Dawley, rat. How it is done: Pharmacokinetic parameters were determined in male Sprague Dawley rats (Charles River, UK, 250-300 g; or Vital River Laboratory Animal Technology Co Ltd, Beijing, China, 7-9 weeks old). Animals were individually housed during the study and maintained under a 12 h light/dark cycle. Animals had free access to food and water except that orally dosed animals were food deprived overnight prior to the study. For intravenous administration, compounds were formulated as a solution in water or DMSO:PBS [10:90] in 2 mL/kg dosing volume and administered via tail vein. For oral administration, compounds were formulated as a solution in water or DMSO:water [10:90] in 5 mL/kg dosing volume and administered orally. Serial blood samples (about 120-300 μL) were taken from each animal at each of 8 time-points post dose (0.083, 0.25, 0.5, 1, 2, 4, 8 and 24 h). Samples were held on ice for no longer than 30 minutes before centrifugation (10,000 rpm (8,385 g) for 3 minutes; or 5,696 rpm (3,000 g) for 15 minutes) for plasma generation. Plasma was frozen on dry ice prior to bioanalysis. PK parameters were generated from LC-MS/MS data using Dotmatics or Phoenix WinNonlin 6.3 software.

[4] abbreviates: human whole blood, 1 μg/ml LPS, nigericin, IL-1β release, read-out: HWB IC50.
Setting [5] is: plasma, intravenous, dose 1 mg/kg, read-out: AUC.
[6] abbreviates: plasma, intravenous, dose 1 mg/kg, read-out: Cl.
[7] abbreviates: plasma, intravenous, dose 1 mg/kg, read-out: T1/2 (converted).
Where [8] appears, read: plasma, intravenous, dose 1 mg/kg, read-out: Vdss.

T1 sequence (Q96P20 whole entry): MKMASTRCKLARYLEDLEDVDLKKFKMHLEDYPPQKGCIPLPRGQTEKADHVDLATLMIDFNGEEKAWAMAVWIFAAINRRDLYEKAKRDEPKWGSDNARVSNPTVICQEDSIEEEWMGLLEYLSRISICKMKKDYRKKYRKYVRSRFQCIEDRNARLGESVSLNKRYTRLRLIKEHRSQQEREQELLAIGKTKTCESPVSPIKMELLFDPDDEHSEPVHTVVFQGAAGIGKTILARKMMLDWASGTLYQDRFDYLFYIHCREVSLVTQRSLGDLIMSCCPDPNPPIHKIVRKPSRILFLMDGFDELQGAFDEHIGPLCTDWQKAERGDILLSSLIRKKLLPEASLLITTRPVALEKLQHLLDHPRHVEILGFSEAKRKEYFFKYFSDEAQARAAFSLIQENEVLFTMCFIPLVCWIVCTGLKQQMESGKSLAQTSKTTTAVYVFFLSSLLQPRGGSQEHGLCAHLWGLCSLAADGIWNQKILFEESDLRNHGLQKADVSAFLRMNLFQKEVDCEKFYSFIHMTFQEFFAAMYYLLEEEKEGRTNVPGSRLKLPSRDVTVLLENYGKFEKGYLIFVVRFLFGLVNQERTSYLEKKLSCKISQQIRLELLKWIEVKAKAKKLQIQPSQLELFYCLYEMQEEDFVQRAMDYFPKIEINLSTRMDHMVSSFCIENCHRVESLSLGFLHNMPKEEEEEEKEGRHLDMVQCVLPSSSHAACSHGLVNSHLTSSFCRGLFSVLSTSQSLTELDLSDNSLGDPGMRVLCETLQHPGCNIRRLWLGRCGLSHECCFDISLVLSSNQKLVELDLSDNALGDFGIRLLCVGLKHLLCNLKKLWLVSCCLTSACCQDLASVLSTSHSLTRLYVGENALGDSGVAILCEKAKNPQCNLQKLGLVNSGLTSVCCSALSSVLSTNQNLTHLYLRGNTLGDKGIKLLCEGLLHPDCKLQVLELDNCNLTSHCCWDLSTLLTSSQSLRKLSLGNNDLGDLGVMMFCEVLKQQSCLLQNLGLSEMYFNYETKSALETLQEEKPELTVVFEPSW

Take `C#CCN1CCC(S(=O)(=O)NC(=O)Nc2c3c(cc4c2CCC4)CCC3)CC1` [Example 2, N-((1,2,3,5,6,7-Hexahydro-s-indacen-4-yl)carbamoyl)-1-(prop-2-yn-1-yl)piperidine-4-sulfonamide, potassium salt]: the IC50 in data set [1] and in data set [2] (setting [4]) was 1000 to 10000 nM in each case.
For the compound `O=C(Nc1c2c(cc3c1CCC3)CCC2)NS(=O)(=O)C1CCNCC1` [Example 4, N-((1,2,3,5,6,7-Hexahydro-s-indacen-4-yl)carbamoyl)-piperidine-4-sulfonamide, potassium salt], the IC50 in data set [1] and in data set [2] (setting [4]) was 1000 to 10000 nM each time.
For `O=C(Nc1c2c(cc3c1CCC3)CCC2)NS(=O)(=O)C1CN(C2CCC2)C1` [Example 18, 1-Cyclobutyl-N-((1,2,3,5,6,7-hexahydro-s-indacen-4-yl)carbamoyl)azetidine-3-sulfonamide, potassium salt], in data set [3] (setting [5]), the area under the curve (AUC) – broadly, concentration integrated over time – came out at 1530 ng·h/mL. Further, the clearance in data set [3] (setting [6]) is 10.9 mL/min/kg. Besides, the half-life in data set [3] (setting [7]) is 0.9 h. For the same compound, in data set [3] (setting [8]), the Vd was determined as 0.42 L/kg.
Turning to `CCN1CCC(S(=O)(=O)NC(=O)Nc2c3c(cc4c2CCC4)CCC3)C1` (centres unmarked) [Example 37, 1-Ethyl-N-((1,2,3,5,6,7-hexahydro-s-indacen-4-yl)carbamoyl) pyrrolidine-3-sulfonamide, potassium salt], the AUC in data set [3] (plasma, intravenous, dose 1.46 mg/kg, read-out: AUC) turned out to be 2250 ng·h/mL. Moreover, in data set [3] (plasma, intravenous, dose 1.46 mg/kg, read-out: Cl), the clearance was 10.8 mL/min/kg. Moreover, in data set [3] (plasma, intravenous, dose 1.46 mg/kg, read-out: T1/2 (converted)), the half-life is 2.1 h. The Vd in data set [3] (plasma, intravenous, dose 1.46 mg/kg, read-out: Vdss) is 0.59 L/kg.
In data set [3] (in vivo, iv, 0.66 mg/kg), `CC(C)N1[C@@H]2CC[C@H]1C[C@@H](S(=O)(=O)NC(=O)Nc1c3c(cc4c1CCC4)CCC3)C2` [Example 45, (1R*,3R*,5S*)—N-((1,2,3,5,6,7-Hexahydro-s-indacen-4-yl)carbamoyl)-8-isopropyl-8-azabicyclo[3.2.i]octane-3-sulfonamide, potassium salt] showed an AUC of 703 ng·h/mL, a Vd of 2.06 L/kg, a clearance of 15.6 mL/min/kg and a half-life of 3.3 h.
Take `CCN1[C@@H]2CC[C@H]1C[C@H](S(=O)(=O)NC(=O)Nc1c3c(cc4c1CCC4)CCC3)C2` [Example 70, N-((1,2,3,5,6,7-Hexahydro-s-indacen-4-yl)carbamoyl)-8-ethyl-8-azabicyclo[3.2.1]octane-3-sulfonamide exo isomers, potassium salt]: in data set [3] (in vivo, iv, 1.86 mg/kg), the AUC is 2550 ng·h/mL, the Vd came out at 0.53 L/kg, the clearance was determined as 12.1 mL/min/kg and the half-life is 1.7 h.
As for `O=C(Nc1c2c(cc3c1CCC3)CCC2)NS(=O)(=O)C1CN(Cc2ccccc2)C1` [Example 72, 1-Benzyl-N-((1,2,3,5,6,7-hexahydro-s-indacen-4-yl)carbamoyl) azetidine-3-sulfonamide, potassium salt], the IC50 (in general, the concentration that inhibits the measured activity by half) in data set [2] (setting [4]) lay within 1000 to 10000 nM.
With `O=C(Nc1c2c(cc3c1CCC3)CCC2)NS(=O)(=O)C1CN(CCCl)C1` [Example 92, 1-(2-Chloroethyl)-N-((1,2,3,5,6,7-hexahydro-s-indacen-4-yl)carbamoyl)azetidine-3-sulfonamide, potassium salt], the half-maximal inhibitory concentration (IC50) in data set [2] lay in the range of 1000 to 10000 nM.
On to `[N-]=[N+]=NCCN1CC(S(=O)(=O)NC(=O)Nc2c3c(cc4c2CCC4)CCC3)C1` [Example 95, 1-(2-Azidoethyl)-N-((1,2,3,5,6,7-hexahydro-s-indacen-4-yl)carbamoyl)azetidine-3-sulfonamide, potassium salt], for which, in data set [2] (setting [4]), the IC50 lay within 1000 to 10000 nM.
On to `O=C(Nc1c2c(cc3c1CCC3)CCC2)NS(=O)(=O)C1CN(C2CCCC2)C1` [Example 99, 1-Cyclopentyl-N-((1,2,3,5,6,7-hexahydro-s-indacen-4-yl)carbamoyl)azetidine-3-sulfonamide, potassium salt], for which the AUC in data set [3] (setting [5]) was 1670 ng·h/mL. The clearance in data set [3] (setting [6]) came to 10 mL/min/kg. The half-life in data set [3] (setting [7]) is 0.6 h. For the same compound, in data set [3] (setting [8]), the Vd worked out at 0.42 L/kg.
Take `O=C(Nc1c2c(cc3c1CCC3)CCC2)NS(=O)(=O)C1CN(Cc2cncnc2)C1` [Example 125, N-((1,2,3,5,6,7-Hexahydro-s-indacen-4-yl)carbamoyl)-1-(pyrimidin-S-ylmethyl)azetidine-3-sulfonamide, potassium salt]: the IC50 in data set [2] (setting [4]) is 1000 to 10000 nM.
Take `COc1cc(-c2ccc3c(c2NC(=O)NS(=O)(=O)c2cn(C(C)C)c(=O)cn2)CCC3)ccn1` [Example 156, 4-Isopropyl-N-((5-(2-methoxypyridin-4-yl)-2,3-dihydro-11H-inden-4-yl)carbamoyl)-S-oxo-4,5-dihydropyrazine-2-sulfonamide]: in data set [3] (setting [5]), the exposure (AUC) came out at 1520 ng·h/mL. In addition, the clearance in data set [3] (setting [6]) stood at 11 mL/min/kg. In addition, in data set [3] (setting [7]), the half-life is 1 h. For the same compound, the Vd in data set [3] (setting [8]) is 0.31 L/kg.
Turning to `COc1cc(-c2cc(F)cc(C(C)C)c2NC(=O)NS(=O)(=O)C2CN(Cc3cccnc3)C2)ccn1` [Example 177, N-((4-Fluoro-2-isopropyl-6-(2-methoxypyridin-4-yl)phenyl)carbamoyl)-1-(pyridin-3-ylmethyl)azetidine-3-sulfonamide], the half-inhibitory concentration (IC50) in data set [1] was 1000 to 10000 nM.
The same measure, in the same setting: under `COc1cc(-c2ccc3c(c2NC(=O)NS(=O)(=O)c2ccn(C(C)C)c(=O)c2)CCC3)ccn1` [Example 179, 1-Isopropyl-N-((5-(2-methoxypyridin-4-yl)-2,3-dihydro-1H-inden-4-yl)carbamoyl)-2-oxo-1,2-dihydropyridine-4-sulfonamide, sodium salt] stands below 1000 nM.
On the same count and under the same terms, the same measure for `CC(C)n1ccc(S(=O)(=O)NC(=O)Nc2c3c(cc4c2CCC4)CCC3)cc1=O` [Example 180, N-((1,2,3,5,6,7-Hexahydro-s-indacen-4-yl)carbamoyl)-1-isopropyl-2-oxo-1,2-dihydropyridine-4-sulfonamide, sodium salt]: 1000 to 10000 nM; for `CC(C)n1cccc(S(=O)(=O)NC(=O)Nc2c3c(cc4c2CCC4)CCC3)c1=O` [Example 182, N-((1,2,3,5,6,7-Hexahydro-s-indacen-4-yl)carbamoyl)-1-isopropyl-2-oxo-1,2-dihydropyridine-3-sulfonamide]: 1000 to 10000 nM.
Take `CN(C)CCn1cc(S(=O)(=O)NC(=O)Nc2c3c(cc4c2CCC4)CCC3)ccc1=O` [Example 184, 1-(2-(Dimethylamino)ethyl)-N-((1,2,3,5,6,7-hexahydro-s-indacen-4-yl)carbamoyl)-6-oxo-1,6-dihydropyridine-3-sulfonamide]: in data set [1], the IC50 was 1000 to 10000 nM.
As to `CCN1CCC(S(=O)(=O)NC(=O)Nc2c(-c3ccnc(OC)c3)ccc3c2CCC3)CC1` [Example 188, 1-Ethyl-N-((5-(2-methoxypyridin-4-yl)-2,3-dihydro-1H-inden-4-yl)carbamoyl)piperidine-4-sulfonamide, potassium salt], in data set [1], the IC50 lay in the range of 1000 to 10000 nM.
As for `CCN1CCC(S(=O)(=O)NC(=O)Nc2c3c(cc4c2CCC4)CC=C3)CC1` [Example 189, 1-Ethyl-N-((1,2,3,7-tetrahydro-s-indacen-4-yl)carbamoyl) piperidine-4-sulfonamide, potassium salt], the IC50 in data set [2] (setting [4]) was 1000 to 10000 nM.
Turning to `CCN1CCC(S(=O)(=O)NC(=O)Nc2c(-c3ccnc(C#N)c3)ccc3c2CCC3)CC1` [Example 190, N-((5-(2-Cyanopyridin-4-yl)-2,3-dihydro-1H-inden-4-yl)carbamoyl)-1-ethylpiperidine-4-sulfonamide, potassium salt], the half-inhibitory concentration (IC50) in data set [1] fell in the range of 1000 to 10000 nM.
On to `CN1CCCC(S(=O)(=O)NC(=O)Nc2c3c(cc4c2CCC4)CCC3)CC1` (centres unmarked) [Example 195, N-((1,2,3,5,6,7-hexahydro-s-indacen-4-yl)carbamoyl)-1-methylazepane-4-sulfonamide, potassium salt], for which the IC50 in data set [1] was below 1000 nM.
